Assay results as given in patent US12077503B2, “Substituted cyclic amides and their use as herbicides” (FMC CORPORATION, priority 2015, dated 2024).

Assays:
Assay in all cases: Test C preemergence
Type in all cases: in vivo
[1] = system: barnyardgrass (Echinochloa crus-galli); settings: scale 0 to 100, 0 no effect, 100 complete control
Outline: (§1)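 Herbicidal effect, applied preemergence to sown seeds or postemergence to 1- to 4-leaf plants, was scored visually 13 to 15 d after application, 0 to 100 versus controls.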

[2] = system: velvetleaf (Abutilon theophrasti); settings: scale 0 to 100, 0 no effect, 100 complete control
Outline: as §1

[3] = system: ryegrass, Italian (Italian ryegrass, Lolium multiflorum); settings: scale 0 to 100, 0 no effect, 100 complete control
Outline: as §1

[4] = system: lambsquarters (Chenopodium album); settings: scale 0 to 100, 0 no effect, 100 complete control
Outline: as §1

[5] = system: crabgrass, large (large crabgrass, Digitaria sanguinalis); settings: scale 0 to 100, 0 no effect, 100 complete control
Outline: as §1

[6] = system: blackgrass (Alopecurus myosuroides); settings: scale 0 to 100, 0 no effect, 100 complete control
Outline: as §1

[7] = system: Galium (catchweed bedstraw, Galium aparine); settings: scale 0 to 100, 0 no effect, 100 complete control
Outline: as §1

[8] = system: ragweed (common ragweed, Ambrosia elatior); settings: scale 0 to 100, 0 no effect, 100 complete control
Outline: as §1

corn (Zea mays) = settings: scale 0 to 100, 0 no effect, 100 complete control
Outline: as §1

[9] = system: johnsongrass (Sorghum halepense); settings: scale 0 to 100, 0 no effect, 100 complete control
Outline: as §1

soybean (Glycine max) = settings: 125 g ai/ha, scale 0 to 100, 0 no effect, 100 complete control
Outline: as §1

[10] = system: wheat (winter wheat, Triticum aestivum); settings: scale 0 to 100, 0 no effect, 100 complete control
Outline: as §1

[11] = system: nutsedge, yellow (yellow nutsedge, Cyperus esculentus); settings: scale 0 to 100, 0 no effect, 100 complete control
Outline: as §1

[12] = system: waterhemp (common waterhemp, Amaranthus rudis); settings: scale 0 to 100, 0 no effect, 100 complete control
Outline: as §1

[13] = system: oilseed rape (Brassica napus); settings: scale 0 to 100, 0 no effect, 100 complete control
Outline: as §1

[14] = system: morningglory (Ipomoea coccinea); settings: scale 0 to 100, 0 no effect, 100 complete control
Outline: as §1

CN1CC(c2cccc(OC(F)(F)C(F)F)c2)C(C(=O)Nc2ccccc2C(F)(F)F)C1=O (stereo not drawn) [Compound 431]
Plant response rating, Barnyardgrass ([1]; 31 g ai/ha): 90
Plant response rating, Barnyardgrass ([1]; 62 g ai/ha): 95
Plant response rating, Barnyardgrass ([1]; 125 g ai/ha): 95
Plant response rating, Barnyardgrass ([1]; 250 g ai/ha): 98
Plant response rating, Velvetleaf ([2]; 62 g ai/ha): 25
Plant response rating, Velvetleaf ([2]; 125 g ai/ha): 40
Plant response rating, Velvetleaf ([2]; 250 g ai/ha): 30
Plant response rating, Ryegrass, Italian ([3]; 62 g ai/ha): 10
Plant response rating, Ryegrass, Italian ([3]; 125 g ai/ha): 15
Plant response rating, Ryegrass, Italian ([3]; 250 g ai/ha): 70
Plant response rating, Lambsquarters ([4]; 31 g ai/ha): 10
Plant response rating, Lambsquarters ([4]; 62 g ai/ha): 40
Plant response rating, Lambsquarters ([4]; 125 g ai/ha): 50
Plant response rating, Lambsquarters ([4]; 250 g ai/ha): 65
Plant response rating, Crabgrass, Large ([5]; 31 g ai/ha): 98
Plant response rating, Crabgrass, Large ([5]; 62 g ai/ha): 100
Plant response rating, Crabgrass, Large ([5]; 125 g ai/ha): 100
Plant response rating, Crabgrass, Large ([5]; 250 g ai/ha): 100
Plant response rating, Blackgrass ([6]; 31 g ai/ha): 60
Plant response rating, Blackgrass ([6]; 62 g ai/ha): 85
Plant response rating, Blackgrass ([6]; 125 g ai/ha): 90
Plant response rating, Blackgrass ([6]; 250 g ai/ha): 98
Plant response rating, Galium ([7]; 31 g ai/ha): 95
Plant response rating, Galium ([7]; 62 g ai/ha): 90
Plant response rating, Galium ([7]; 125 g ai/ha): 100
Plant response rating, Galium ([7]; 250 g ai/ha): 90
Plant response rating, Ragweed ([8]; 31 g ai/ha): 50
Plant response rating, Ragweed ([8]; 62 g ai/ha): 40
Plant response rating, Ragweed ([8]; 125 g ai/ha): 40
Plant response rating, Ragweed ([8]; 250 g ai/ha): 60
Plant response rating, Corn (corn (Zea mays); 31 g ai/ha): 0
Plant response rating, Corn (corn (Zea mays); 62 g ai/ha): 35
Plant response rating, Corn (corn (Zea mays); 125 g ai/ha): 50
Plant response rating, Corn (corn (Zea mays); 250 g ai/ha): 65
Plant response rating, Johnsongrass ([9]; 31 g ai/ha): 70
Plant response rating, Johnsongrass ([9]; 62 g ai/ha): 75
Plant response rating, Johnsongrass ([9]; 125 g ai/ha): 85
Plant response rating, Johnsongrass ([9]; 250 g ai/ha): 90
Plant response rating, Soybean (soybean (Glycine max)): 0
Plant response rating, Wheat ([10]; 62 g ai/ha): 5
Plant response rating, Wheat ([10]; 125 g ai/ha): 70
Plant response rating, Wheat ([10]; 250 g ai/ha): 90
Plant response rating, Nutsedge, Yellow ([11]; 31 g ai/ha): 0
Plant response rating, Nutsedge, Yellow ([11]; 62 g ai/ha): 0
Plant response rating, Nutsedge, Yellow ([11]; 125 g ai/ha): 0
Plant response rating, Nutsedge, Yellow ([11]; 250 g ai/ha): 0
Plant response rating, Waterhemp ([12]; 62 g ai/ha): 75
Plant response rating, Waterhemp ([12]; 125 g ai/ha): 85
Plant response rating, Waterhemp ([12]; 250 g ai/ha): 90
Plant response rating, Oilseed Rape ([13]; 31 g ai/ha): 10
Plant response rating, Oilseed Rape ([13]; 62 g ai/ha): 60
Plant response rating, Oilseed Rape ([13]; 125 g ai/ha): 85
Plant response rating, Oilseed Rape ([13]; 250 g ai/ha): 90
Plant response rating, Morningglory ([14]; 31 g ai/ha): 0
Plant response rating, Morningglory ([14]; 62 g ai/ha): 10
Plant response rating, Morningglory ([14]; 125 g ai/ha): 10
Plant response rating, Morningglory ([14]; 250 g ai/ha): 10
